This assay has as its system Plasmodium berghei. Briefly: Luciferase/luciferin-expressing antifolate-resistant parasites were used to infect a culture of HepG2 cells that were pre-incubated with compounds. Infected hepatocytes emit light due to the luciferase reaction. Assay results are presented as the percent inhibition of light emission compared to control. […]. It counts as functional. The note with it: sporozoite; for IC90: read-out: LUCIFERASE INFECTION ASSAY - IC90.

This note sets out measurements from ChEMBL document CHEMBL4483862, “Open-source discovery of chemical leads for next-generation chemoprotective antimalarials” (2018).

The IC50 is the point on the concentration scale where inhibition reaches its midpoint. As usually defined, the IC90 is the concentration needed for an effect of 90%.

Consider `Oc1cccc2c(NC(S)=Nc3ccc(SC(F)F)cc3)cccc12`, for which the IC90 is 7.7 µM. In addition, where the note is “FFLUC_HILL_SLOPE 69.3, FFLUC_R_SQUARED 0.272, PBLUC_HILL_SLOPE 39, PBLUC_R_SQUARED 0.0559, read-out: LUCIFERASE INFECTION ASSAY - IC50”, the IC50 was 7.27 µM.

For the molecule `CC(=O)Nc1cccc(-c2ccnc3c2CC(C(=O)NCc2cccs2)O3)c1` (stereo unspecified), the IC90 was 3.24 µM. The IC50 (FFLUC_HILL_SLOPE 58.8, FFLUC_R_SQUARED 0.264, HEPG2TOX_HILL_SLOPE 13.5, HEPG2TOX_R_SQUARED 0.74, PBLUC_HILL_SLOPE 13.2, PBLUC_R_SQUARED 0.157, read-out: LUCIFERASE INFECTION ASSAY - IC50) turned out to be 2.74 µM.

With `Cc1cc(O)c(C(=O)/C=C/c2cccc(C(F)(F)F)c2)c(=O)o1`, the 90% effect concentration (IC90) was more than 10 µM. Where the note is “FFLUC_HILL_SLOPE 56.9, FFLUC_R_SQUARED 0.7, read-out: LUCIFERASE INFECTION ASSAY - IC50”, the IC50 is more than 10 µM.

On to `N#C/C(=N\Nc1cc(C(F)(F)F)cc(C(F)(F)F)c1)S(=O)(=O)c1cccs1`, for which the IC90 came to 2 µM. Moreover, the IC50 (FFLUC_HILL_SLOPE 43.6, FFLUC_R_SQUARED 0.536, HEPG2TOX_HILL_SLOPE 2.45, HEPG2TOX_R_SQUARED 0.984, PBLUC_HILL_SLOPE 3.51, PBLUC_R_SQUARED 0.744, read-out: LUCIFERASE INFECTION ASSAY - IC50) is 1.07 µM.

In the case of `CC(C)n1c(Sc2ncc([N+](=O)[O-])s2)nc2cc(Cl)ccc21`, the IC90 was 8.83 µM. Moreover, the IC50 (FFLUC_HILL_SLOPE 44.5, FFLUC_R_SQUARED 0.755, HEPG2TOX_HILL_SLOPE 8.37, HEPG2TOX_R_SQUARED 0.175, PBLUC_HILL_SLOPE 4.42, PBLUC_R_SQUARED 0.266, read-out: LUCIFERASE INFECTION ASSAY - IC50) was 5.37 µM.

As to `CC(=O)Nc1ccc(OC(=O)c2cc(C(C)(C)C)nn2Cc2c(C)cc(C)cc2C)cc1`, the 90% effect concentration (IC90) was 3.69 µM. Further, the IC50 (FFLUC_HILL_SLOPE 42.8, FFLUC_R_SQUARED 0.589, PBLUC_HILL_SLOPE 8.27, PBLUC_R_SQUARED 0.64, read-out: LUCIFERASE INFECTION ASSAY - IC50) is 2.83 µM.

Regarding `Cc1[nH]c2ccccc2c1C(=O)/C(C#N)=C/c1ccc(-c2ccc(S(=O)(=O)N3CCOCC3)cc2)o1`, the IC90 was more than 10 µM. The IC50 (FFLUC_HILL_SLOPE 49.5, FFLUC_R_SQUARED 0.839, HEPG2TOX_HILL_SLOPE 4, HEPG2TOX_R_SQUARED 0.152, PBLUC_HILL_SLOPE 1.9, PBLUC_R_SQUARED 0.247, read-out: LUCIFERASE INFECTION ASSAY - IC50) stood at 5.12 µM.

In the case of `CC(C)(C)c1ccc(C(=N)SC(C(=O)C(F)(F)F)c2ccccc2)cc1` (stereo unspecified), the concentration for an effect of 90% (IC90) is 2.03 µM. For the same molecule, where the note is “FFLUC_HILL_SLOPE 64.5, FFLUC_R_SQUARED 0.585, PBLUC_HILL_SLOPE 1.09, PBLUC_R_SQUARED 0.88, read-out: LUCIFERASE INFECTION ASSAY - IC50”, the IC50 stood at 0.269 µM.

As to `COc1ccc2c(-c3ccccc3)cc(SC(c3ccccc3)c3ccccc3)nc2c1`, the IC90 was more than 10 µM. The IC50 (FFLUC_HILL_SLOPE 74, FFLUC_R_SQUARED 0.292, read-out: LUCIFERASE INFECTION ASSAY - IC50) is more than 10 µM.

Turning to `Cc1cc(C)c(Nc2nc(-c3c(-c4ccccc4)noc3C)cs2)c(C)c1`, the IC90 turned out to be 5.3 µM. Further, the IC50 (FFLUC_HILL_SLOPE 43.6, FFLUC_R_SQUARED 0.276, HEPG2TOX_HILL_SLOPE 3.1, HEPG2TOX_R_SQUARED 0.635, PBLUC_HILL_SLOPE 7.7, PBLUC_R_SQUARED 0.763, read-out: LUCIFERASE INFECTION ASSAY - IC50) was determined as 3.98 µM.

Take `N#Cc1ccc(/C=N/n2c(-c3ccc(F)cc3)cs/c2=N\c2cccnc2)cc1`: the IC90 is more than 10 µM. For the same molecule, the IC50 (FFLUC_HILL_SLOPE 41.3, FFLUC_R_SQUARED 0.462, HEPG2TOX_HILL_SLOPE 8.97, HEPG2TOX_R_SQUARED 0.901, PBLUC_HILL_SLOPE 3.58, PBLUC_R_SQUARED 0.653, read-out: LUCIFERASE INFECTION ASSAY - IC50) came to 5.78 µM.

Regarding `Cc1cc(C(=O)N/N=C/c2ccc([N+](=O)[O-])s2)nn1-c1c(Cl)cc(Cl)cc1Cl`, the IC90 amounted to 4.83 µM. Besides, the IC50 (FFLUC_HILL_SLOPE 59.9, FFLUC_R_SQUARED 0.709, PBLUC_HILL_SLOPE 2.3, PBLUC_R_SQUARED 0.454, read-out: LUCIFERASE INFECTION ASSAY - IC50) was 1.86 µM.

In the case of `CCCCNC(=O)c1c(NC(=O)c2ccccc2)nc2ccc(C)cn12`, the 90% effect concentration (IC90) was found to be 6.8 µM. For the same molecule, under “FFLUC_HILL_SLOPE 60.4, FFLUC_R_SQUARED 0.28, HEPG2TOX_HILL_SLOPE 6.52, HEPG2TOX_R_SQUARED 0.955, PBLUC_HILL_SLOPE 4.31, PBLUC_R_SQUARED 0.763, read-out: LUCIFERASE INFECTION ASSAY - IC50”, the IC50 amounted to 4.08 µM.

Consider `Nc1c(C(=O)c2ccc(Cl)cc2)sc2nc3c(c(-c4cccs4)c12)CCCC3`, for which the IC90 is more than 7.77 µM. The IC50 (FFLUC_HILL_SLOPE 44.8, FFLUC_R_SQUARED 0.458, PBLUC_HILL_SLOPE 1.88, PBLUC_R_SQUARED 0.367, read-out: LUCIFERASE INFECTION ASSAY - IC50) amounted to 5.01 µM.

Consider `O=C(Nc1nc(-c2ccc(Cl)cc2Cl)cs1)C1CC(=O)N(CCc2ccccc2)C1` (stereo unspecified), for which the IC90 is more than 10 µM. Where the note is “FFLUC_HILL_SLOPE 45.5, FFLUC_R_SQUARED 0.597, PBLUC_HILL_SLOPE 12.9, PBLUC_R_SQUARED 0.652, read-out: LUCIFERASE INFECTION ASSAY - IC50”, the IC50 came to 9.1 µM.

For `CCCNC(=O)c1c(NC(=O)c2cc(F)cc(F)c2)nc2ccccn12`, the IC90 was 2.45 µM. Besides, the IC50 (FFLUC_HILL_SLOPE 41.4, FFLUC_R_SQUARED 0.343, HEPG2TOX_HILL_SLOPE 1.12, HEPG2TOX_R_SQUARED 0.682, PBLUC_HILL_SLOPE 5.41, PBLUC_R_SQUARED 0.415, read-out: LUCIFERASE INFECTION ASSAY - IC50) worked out at 1.63 µM.

As for `COc1cccc(-c2nc3ccc(NC(=O)Nc4ccc(OC(F)(F)F)cc4)cn3n2)c1`, the IC90 is more than 10 µM. The concentration for half-maximal inhibition (IC50) (FFLUC_HILL_SLOPE 45.6, FFLUC_R_SQUARED 0.742, read-out: LUCIFERASE INFECTION ASSAY - IC50) was more than 10 µM.

In the case of `O=C(Nc1cccc(C(F)(F)F)c1)Nc1ccc2nc(-c3ccco3)nn2c1`, the IC90 was more than 10 µM. Also, for the setting “FFLUC_HILL_SLOPE 40.8, FFLUC_R_SQUARED 0.195, PBLUC_HILL_SLOPE 31.8, PBLUC_R_SQUARED 0.106, read-out: LUCIFERASE INFECTION ASSAY - IC50”, the IC50 worked out at 9.83 µM.

`O=c1c2c(-c3ccccc3)csc2nc2n1CC/C2=C\c1cccc(C(F)(F)F)c1`: the IC90 was more than 10 µM. Moreover, the IC50 (FFLUC_HILL_SLOPE 50.3, FFLUC_R_SQUARED 0.583, read-out: LUCIFERASE INFECTION ASSAY - IC50) is more than 10 µM.

For `CC(=O)Nc1ccc(-c2cnc3ccc(-c4ccc(F)c(Cl)c4)nn23)cc1`, the IC90 turned out to be 3.52 µM. In addition, the IC50 (FFLUC_HILL_SLOPE 64.9, FFLUC_R_SQUARED 0.6, HEPG2TOX_HILL_SLOPE 8.77, HEPG2TOX_R_SQUARED 0.612, PBLUC_HILL_SLOPE 16.7, PBLUC_R_SQUARED 0.645, read-out: LUCIFERASE INFECTION ASSAY - IC50) turned out to be 3.09 µM.

As to `C/C(=N\NC(=S)Nc1ccccc1)c1ccn[nH]1`, the IC90 is more than 12.7 µM. In addition, the IC50 (FFLUC_HILL_SLOPE 48.7, FFLUC_R_SQUARED 0.514, PBLUC_HILL_SLOPE 3.68, PBLUC_R_SQUARED 0.194, read-out: LUCIFERASE INFECTION ASSAY - IC50) was determined as 8.67 µM.

For `O=C(Cn1ncc(Cl)c(Cl)c1=O)NCC12CC3CC(CC(C3)C1)C2`, the IC90 was more than 10 µM. Where the note is “FFLUC_HILL_SLOPE 71.8, FFLUC_R_SQUARED 0.575, read-out: LUCIFERASE INFECTION ASSAY - IC50”, the IC50 was more than 10 µM.

For the molecule `N#Cc1ccsc1NC(=O)COc1ccc([N+](=O)[O-])cc1Cl`, the IC90 was more than 10 µM. The concentration for half-maximal inhibition (IC50) (FFLUC_HILL_SLOPE 45.5, FFLUC_R_SQUARED 0.53, PBLUC_HILL_SLOPE 0.51, PBLUC_R_SQUARED 0.745, read-out: LUCIFERASE INFECTION ASSAY - IC50) was determined as 0.444 µM.

With `O=C(Nc1ccc2c(c1)OCO2)C1CCN(C(C(=O)c2c[nH]c3ccccc23)c2ccccc2)CC1` (stereo unspecified), the 90% effect concentration (IC90) is more than 10 µM. Besides, the IC50 (FFLUC_HILL_SLOPE 60.7, FFLUC_R_SQUARED 0.292, PBLUC_HILL_SLOPE 4.02, PBLUC_R_SQUARED 0.0454, read-out: LUCIFERASE INFECTION ASSAY - IC50) turned out to be 7.8 µM.

On to `Cc1ccc(-c2ccccc2C(=O)OCC(=O)Nc2ccc(C)c(Cl)c2)cc1`, for which the IC90 was more than 10 µM. Moreover, the IC50 (FFLUC_HILL_SLOPE 49.8, FFLUC_R_SQUARED 0.336, read-out: LUCIFERASE INFECTION ASSAY - IC50) is more than 10 µM.

Turning to `FC(F)Oc1ccc(-c2n[nH]cc2Sc2ccc(Cl)cc2)cc1`, the IC90 was more than 9.35 µM. Moreover, the IC50 (FFLUC_HILL_SLOPE 44.1, FFLUC_R_SQUARED 0.44, PBLUC_HILL_SLOPE 8.27, PBLUC_R_SQUARED 0.292, read-out: LUCIFERASE INFECTION ASSAY - IC50) was more than 9.35 µM.

With `Cn1c(=O)c(C2=NN(C(=O)c3cccs3)C(c3ccco3)C2)c(-c2ccccc2)c2cc(Cl)ccc21` (stereo unspecified), the IC90 is more than 10 µM. Also, the IC50 (FFLUC_HILL_SLOPE 47.1, FFLUC_R_SQUARED 0.757, PBLUC_HILL_SLOPE 11.3, PBLUC_R_SQUARED 0.251, read-out: LUCIFERASE INFECTION ASSAY - IC50) is 9.29 µM.

Regarding `CC1(CCc2ccccc2)NCC(c2ccc(Cl)cc2Cl)c2c1[nH]c1ccccc21` (stereo unspecified), the IC90 was more than 10 µM. Also, for the setting “FFLUC_HILL_SLOPE 44.6, FFLUC_R_SQUARED 0.534, read-out: LUCIFERASE INFECTION ASSAY - IC50”, the IC50 was more than 10 µM.
